Data: US9550742B2, “11-OXO-10,11-dihydrodibenzo[B,F][1,4]thiazepine S-oxide derivatives and their use as dopamine D2 receptor antagonists” (The United States of America, as Represented by the …, priority 2013, dated 2017)
Where two headings read alike, the source gives them in different places.

How the values were obtained:
D2 DAR = target: T1, D2 DAR (Homo sapiens, UniProt P14416); test: D2 Ca^2+ screen assay (calcium accumulation, HEK293 T-REx with Gqi5); assay type: cell-based
T1 construct: expressed in transfected cells; host or cells: HEK293 T-REx, Tet-inducible, with chimeric G-protein Gqi5
T1 sequence (P14416 whole entry): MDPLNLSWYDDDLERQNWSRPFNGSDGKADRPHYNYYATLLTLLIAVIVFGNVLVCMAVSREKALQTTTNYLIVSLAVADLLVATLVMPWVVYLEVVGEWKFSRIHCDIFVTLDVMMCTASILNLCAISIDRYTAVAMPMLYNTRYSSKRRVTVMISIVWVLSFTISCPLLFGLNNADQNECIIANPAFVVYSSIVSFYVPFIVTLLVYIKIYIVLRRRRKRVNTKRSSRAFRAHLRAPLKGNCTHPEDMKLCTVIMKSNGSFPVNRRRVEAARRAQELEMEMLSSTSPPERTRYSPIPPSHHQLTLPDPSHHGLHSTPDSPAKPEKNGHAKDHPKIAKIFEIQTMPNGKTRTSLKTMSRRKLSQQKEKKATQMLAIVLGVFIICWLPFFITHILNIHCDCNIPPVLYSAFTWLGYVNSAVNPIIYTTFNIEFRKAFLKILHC
Method: The resting concentration of calcium ions (Ca^2+) in the cells' cytoplasm is normally maintained in the range of 10-100 nM. To maintain this low concentration, Ca^2+ is actively pumped from the cytosol to the extracellular space and into the endoplasmic reticulum (ER), and sometimes into the mitochondria. Signaling occurs when the cell is stimulated to release Ca^2+ from intracellular stores. The most common signaling pathway that increases cytoplasmic calcium concentration is the phospholipase C (PLC) pathway. […] IP3 diffuses to the ER, binds to its receptor (IP3 receptor), which is a Ca^2+ channel and, thus, releases Ca^2+ from the ER to the cytosol. To measure this cytosolic Ca^2+ accumulation, we used the Screen Quest™ Fluo-8 Calcium Assay Kit (AAT Bioquest, Sunnyvale, Calif.). Acetoxymethyl (AM) esters bound to Fluo-8™ dye are non-polar molecules that easily cross live cell membranes transporting the dye inside the cell, and are then rapidly hydrolyzed by cellular esterases inside live cells. As Fluo-8™ is freed from AM esters, it binds to Ca^2+ and emits a fluorescent signal at 514 nm that escalates with increasing cytosolic Ca^2±. To measure this calcium flux signal, we used the Functional Drug Screening System (FDSS) (Hamamatsu, Japan), a high throughput screening device that allows optical detection of signal transmissions within living cells in a time-resolving fashion. […] Quest Fluo-8™ calcium reagent was freshly prepared prior to adding to the cells (lyophilized Fluo-8™ dye provided with the kit was re-suspended in 200 μL DMSO as a 500× stock and stored at −20° C.). 2 μL/well of Quest Fluo-8™ calcium dye diluted in HBSS +10 mM HEPES buffer (for every 10 mL buffer, 1 mL of 10× quencher provided in the kit and 20 μL of 500×DMSO stock dye were added) was added to cells with a Multi-Drop Combi (ThermoScientific) and incubated for 45-90 min in the dark at ambient temperature. Then, the plates were introduced into the FDSS where they were pinned with 23 nL of test compound or dopamine controls and were read by FDSS in non-stimulated mode for 180 sec for detection of agonists. […]

D2 GPCR receptor (DAR) = target: T2, D2 GPCR receptor (DAR) (Homo sapiens, UniProt P14416); test: D2 beta-arrestin functional assay (PathHunter, CHO); assay type: cell-based; details: for D3/D2 beta-arrestin IC50ratio: ratio of D3 (Example 4) to D2 (Example 2) beta arrestin assay
T2 construct: host or cells: CHO PathHunter β-arrestin cells
T2 sequence (P14416 whole entry): as above
Text: For a secondary-screen and selectivity assays, DAR PathHunter® β-arrestin GPCR cell lines from DiscoveRx (Fremont, Calif.). In this) were used. In the D2 Receptor PathHunter® β-arrestin GPCR cell line, the D2 GPCR receptor (DAR) is overexpressed and fused with a small 42-amino acid fragment of β-galactosidase called ProLink™ on a CHO cellular background expressing a fusion protein of β-arrestin and a larger N-terminal deletion mutant of β-galactosidase (“enzyme acceptor”). When DAR is activated by dopamine, it stimulates binding of β-arrestin to the ProLink-tagged DAR and the two complementary parts of β-galactosidase form a functional enzyme. When substrate (PathHunter® Detection reagent) is added, β-galactosidase hydrolyzes it and generates a chemiluminescent signal.
D2 Receptor PathHunter® β-arrestin cells were seeded at 2,100 cells/well in 3 μL/well media (DiscoveRx Plating Reagent 2) with MultiDrop Combi dispenser (Thermo Scientific, Logan, Utah) onto white tissue culture treated 1,536-well Aurora plates (Brooks Automation, Chelmsford, Mass.) and allowed to attach overnight at 37° C., 5% CO2. Next, 23 nL/well of compound solutions in DMSO were added with a pintool transfer (Kalypsis, San Diego, Calif.). The cells were stimulated by compounds for 90 min at 37° C., 5% CO2, after which 1.5 μL/well of DiscoveRx detection reagent was added with BioRAPTR FRD dispenser. The detection reagent was prepared by mixing of Galacton Star Substrate, Emerald II solution and PathHunter buffer (supplied by the assay kit) together at a 1:5:19 proportion just prior to dispensing. The plates were incubated at ambient temperature for 1 hr, and the luminescent signal was read on a ViewLux plate reader (PerkinElmer, Waltham, Mass.).

[1] = target: D3 dopamine receptor (DAR) (Homo sapiens, UniProt P35462); test: D3 beta-arrestin functional assay (PathHunter, CHO); assay type: cell-based; details: dose response curve; read-out: D3 β-arrestin assay AC50
D3 dopamine receptor (DAR), sequence (P35462 whole entry): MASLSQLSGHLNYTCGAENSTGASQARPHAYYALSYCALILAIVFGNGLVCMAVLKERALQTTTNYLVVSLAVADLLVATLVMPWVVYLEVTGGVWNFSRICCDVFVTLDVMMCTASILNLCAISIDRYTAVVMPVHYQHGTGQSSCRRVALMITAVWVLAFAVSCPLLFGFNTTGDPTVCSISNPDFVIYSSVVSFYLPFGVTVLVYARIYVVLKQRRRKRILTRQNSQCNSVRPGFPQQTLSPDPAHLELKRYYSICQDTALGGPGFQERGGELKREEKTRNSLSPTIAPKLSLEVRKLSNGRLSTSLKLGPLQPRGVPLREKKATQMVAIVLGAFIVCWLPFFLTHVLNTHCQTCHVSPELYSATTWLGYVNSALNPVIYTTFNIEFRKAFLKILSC
Text: A CHO cell line was engineered to overexpress D3 dopamine receptor (DAR) and fused with a small 42-amino acid fragment of β-gal called ProLink™. In addition, these cells stably express a fusion protein of β-arrestin and a larger N-terminal deletion mutant of β-galactosidase (“enzyme acceptor”). When DAR is activated by dopamine, it stimulates binding of β-arrestin to ProLink-tagged DARs, and the two complementary parts of β-galactosidase form a functional enzyme. When substrate (PathHunter® Detection reagent) is added, βgalactosidase hydrolyzes it and generates a chemiluminescent signal.
For the 1,536-well assay, D3 PathHunter® β-arrestin cells were seeded at 2,100 cells/well in 3 μL/well media (DiscoveRx Plating Reagent 2) with MultiDrop Combi dispenser (Thermo Scientific, Logan, Utah) onto white tissue culture treated 1,536-well Aurora plates (Brooks Automation, Chelmsford, Mass.) and allowed to attach overnight at 37° C., 5% CO2. Next, 23 nL/well of compound solutions in DMSO were added with a pintool transfer (Kalypsis, San Diego, Calif.). The cells were stimulated by compounds for 90 minutes at 37° C., 5% CO2, after which 1.5 μL/well of DiscoveRx detection reagent was added with BioRAPTR FRD dispenser. […] The plates were incubated at ambient temperature for 1 h, and the luminescent signal was read on ViewLux plate reader (PerkinElmer, Waltham, Mass.).

[2] = target: D2L human dopamine receptors (Homo sapiens, UniProt P14416); test: D2 binding assay ([^3H]methylspiperone, HEK membranes); details: for D3/D2 binding Ki ratio: ratio of D3 (Example 5) to D2 (Example 3) binding assay
D2L human dopamine receptors, sequence (P14416 whole entry): as the sequence (P14416 whole entry) above
Method: Compounds were tested for differences in affinity between three dopamine receptor subtypes using radio-labeled ligand binding assays. The first assay determined the Ki value of the compounds for the D2 DAR subtype using stable HEK cell lines expressing the D2L human dopamine receptors (Codex Biosciences, Gaithersburg, Md.). Cells were cultured in Dulbecco's modified Eagle's Medium containing 10% FBS, 1,000 units/mL Penicillin, 1,000 mg/mL Streptomycin, 100 mM Sodium Pyruvate, 1 μg/mL Gentamicin, and […] G418. All cells were maintained at 37° C. in 5% CO2 and 90% humidity. For radioligand binding assays, cells were removed mechanically using calcium and magnesium-free Earle's Balanced Salt Solution (EBSS(−)). Intact cells were collected by centrifugation and then lysed with 5 mM Tris-HCl and 5 mM MgCl2 at pH 7.4 in a glass homogenizer. Homogenates were centrifuged at 20,000×g for 30 minutes. The membranes were re-suspended in EBSS (pH 7.4) and protein concentration was determined using a Bradford assay according to the manufacturer's recommendations (Bio-Rad). Membranes were diluted to 24 mg/mL. […] Membrane preparations were incubated for 90 min at room temperature with various concentrations of radioligand in a reaction volume of 250 μL EBSS containing 200 mM sodium metabisulfite. Non-specific binding was determined in the presence of 4 μM (+)-butaclamol. Bound ligand was separated from unbound by filtration through GF/C filters using a PerkinElmer cell harvester with ice cold EBSS (4 washes) and quantified on a Top-count (PerkinElmer) after addition of scintillation solution. […] In order to determine the affinity of a given compound for a receptor type, competition-binding assays were performed. […] Reactions were incubated, terminated, and quantified as indicated above.

[3] = target: D3 human dopamine receptors (Homo sapiens, UniProt P35462); test: D3 binding assay ([^3H]methylspiperone, HEK293 membranes)
D3 human dopamine receptors, sequence (P35462 whole entry): as the sequence (P35462 whole entry) above
Method: Cells were cultured in Dulbecco's modified Eagle's Medium containing 10% FBS, 1,000 units/mL Penicillin, 1,000 mg/mL Streptomycin, 100 mM Sodium Pyruvate, 1 μg/mL Gentamicin, and […] G418. All cells were maintained at 37° C. in 5% CO2 and 90% humidity. For radioligand binding assays, cells were removed mechanically using calcium and magnesium-free Earle's Balanced Salt Solution (EBSS(−)). Intact cells were collected by centrifugation and then lysed with 5 mM Tris-HCl and 5 mM MgCl2 at pH 7.4 in a glass homogenizer. […] Membrane preparations were incubated for 90 min at room temperature with various concentrations of radioligand in a reaction volume of 250 μL EBSS containing 200 mM sodium metabisulfite. […] Bound ligand was separated from unbound by filtration through GF/C filters using a PerkinElmer cell harvester with ice cold EBSS (4 washes) and quantified on a Top-count (PerkinElmer) after addition of scintillation solution. […] In order to determine the affinity of a given compound for a receptor type, competition-binding assays were performed. […] Reactions were incubated, terminated, and quantified as indicated above.

[4] = dopamine D2 calcium release assay of Example 1, read-out: Ca^2+ AC50

Row | SMILES | AC50 (D2 DAR; [4]) [µM] | AC50 (D2 DAR; dose response curve, read-out: D2 Ca^2+ assay AC50) [µM] | AC50 (D2 GPCR receptor (DAR); dose response curve, read-out: D2 β-arrestin assay AC50) [µM] | D3/D2 beta-arrestin IC50ratio (D2 GPCR receptor (DAR)) | AC50 [1] [µM] | Ki [2] [µM] | D3/D2 binding Ki ratio [2] | Ki [3] [µM]
1 | CCN1C(=O)c2ccccc2[S+]([O-])c2ccc(C(=O)NCc3ccc(OC)cc3)cc21 (centres unmarked) [Compound 1, 10-Ethyl-N-(4-methoxybenzyl)-11-oxo-10,11-dihydrodibenzo[b,f][1,4]thiazepine-8-carboxamide 5-oxide] | < 1 | 0.281 | 2.89 | 2.0 | 5.76 | 0.08 | 6.0 | 0.48
2 | CCN1C(=O)c2ccccc2[S@+]([O-])c2ccc(C(=O)N[C@H](C)c3ccc(Br)cc3)cc21 [Compound 49, (R)-N-(1-(4-Bromophenyl)ethyl)-10-ethyl-11-oxo-10,11-dihydrodibenzo[b,f][1,4]thiazepine-8-carboxamide 5-(S)-oxide] | < 1 | – | – | 7.1 | – | – | 1.3 | –
3 | CCN1C(=O)c2ccccc2[S@+]([O-])c2ccc(C(=O)N[C@H](C)c3ccc4ccccc4c3)cc21 [Compound 50, (R)-10-Ethyl-N-(1-(naphthalen-2-yl)ethyl)-11-oxo-10,11-dihydrodibenzo[b,f][1,4]thiazepine-8-carboxamide 5-(S)-oxide] | < 1 | – | – | 11.2 | – | – | 16.2 | –
4 | CN1C(=O)c2ccccc2[S@+]([O-])c2ccc(C(=O)NCc3ccc(Br)cc3)cc21 [Compound 52, N-(4-bromobenzyl)-10-methyl-11-oxo-10,11-dihydrodibenzo[b,f][1,4]thiazepine-8-carboxamide 5-(S)-oxide] | < 1 | – | – | 4.6 | – | – | 1.5 | –
5 | CN1C(=O)c2ccccc2[S@+]([O-])c2ccc(C(=O)NCc3cccnc3)cc21 [Compound 53, 10-Methyl-11-oxo-N-(pyridin-3-ylmethyl)-10,11-dihydrodibenzo[b,f][1,4]thiazepine-8-carboxamide 5-(S)-oxide] | < 1 | – | – | 5.0 | – | – | 70.0 | –
6 | CN1C(=O)c2ccccc2[S@+]([O-])c2ccc(C(=O)NCCN3CCCC3)cc21 [Compound 54, 10-Methyl-11-oxo-N-(2-(pyrrolidin-1-yl)ethyl)-10,11-dihydrodibenzo[b,f][1,4]thiazepine-8-carboxamide 5-(S)-oxide] | < 1 | – | – | 7.2 | – | – | 1.7 | –
